Patent US20040254100A1, “Use of thiostrepton as an anti-mycobacterial agent” (priority 2000, published 2004)

Test system: M. tuberculosis H37Ra in murine alveolar macrophage-like cell line MH-S
Test: microbe, parasite or virus in culture
Type: cell-based
Details: Mycobacterium tuberculosis, 24 h

Q: `C=C(NC(=O)C(=C)NC(=O)c1csc(C2=N[C@@H]3c4csc(n4)[C@H]4NC(=O)c5csc(n5)[C@H]([C@](C)(O)[C@@H](C)O)NC(=O)[C@H]5CSC(=N5)/C(=C/C)NC(=O)[C@H]([C@@H](C)O)NC(=O)c5csc(n5)[C@]3(CC2)NC(=O)[C@H](C)NC(=O)C(=C)NC(=O)[C@H](C)NC(=O)[C@H]([C@@H](C)CC)N[C@@H]2C=Cc3c([C@H](C)O)cc(nc3[C@H]2O)C(=O)O[C@@H]4C)n1)C(N)=O` [thiostrepton, Thiostrepton] was tested. Which IC50 did it give?
A: Its IC50 is 30 nM.
